Data taken from ChEMBL document CHEMBL4818987, “Recent advances of podophyllotoxin/epipodophyllotoxin hybrids in anticancer activity, mode of action, and structure-activity relationship: An update (2010-2020)” (Eur J Med Chem, 2020).

Assays:
Format in all cases: functional, cell-based
[1] = test system: HeLa; experiment: Antiproliferative activity against human HeLa cells incubated for 48 hrs by MTT assay
[2] = test system: A549; experiment: Antiproliferative activity against human A549 cells incubated for 48 hrs by MTT assay; conditions: A549, 48 h
[3] = test system: HepG2; experiment: Antiproliferative activity against human HepG2 cells incubated for 48 hrs by MTT assay; conditions: HepG2, 48 h
[4] = test system: SMMC-7721; experiment: Antiproliferative activity against human SMMC-7721 cells incubated for 48 hrs by MTT assay; conditions: SMMC-7721, 48 h
[5] = test system: HL-60; experiment: Antiproliferative activity against human HL-60 cells incubated for 48 hrs by MTT assay; conditions: HL-60, 48 h
[6] = test system: MCF7; experiment: Antiproliferative activity against human MCF7 cells incubated for 48 hrs by MTT assay; conditions: MCF7, 48 h
[7] = test system: SW480; experiment: Antiproliferative activity against human SW480 cells incubated for 48 hrs by MTT assay; conditions: SW480, 48 h
[8] = test system: MKN-45; experiment: Antiproliferative activity against human MKN-45 cells incubated for 48 to 72 hrs by MTT assay
[9] = test system: NCI-H1993; experiment: Antiproliferative activity against human NCI-H1993 cells incubated for 48 to 72 hrs by MTT assay
[10] = test system: B16; experiment: Antiproliferative activity against […] cells incubated for 48 to 72 hrs by MTT assay; conditions: Mus musculus
[11] = test system: HepG2; experiment: Antiproliferative activity against human HepG2 cells incubated for 48 to 72 hrs by MTT assay

SMILES | IC50 [1] [nM] | IC50 [2] [nM] | IC50 [3] [nM] | IC50 [4] [nM] | IC50 [5] [nM] | IC50 [6] [nM] | IC50 [7] [nM] | IC50 [8] [nM] | IC50 [9] [nM] | IC50 [10] [nM] | IC50 [11] [nM]
COc1cc([C@@H]2c3cc4c(cc3C[C@H]3COC(=O)[C@@H]32)OCO4)cc(OC)c1OC(=O)NCC(=O)N1CCN(c2ccc([N+](=O)[O-])cc2)CC1 | 183 | 183 | 210 | – | – | – | – | – | – | – | –
COc1cc([C@@H]2c3cc4c(cc3[C@H](OC(=O)CCCCCNC(=O)CCCC[C@@H]3SC[C@@H]5NC(=O)N[C@@H]53)[C@H]3COC(=O)[C@H]23)OCO4)cc(OC)c1OC | – | > 130 | – | > 130 | > 130 | > 130 | > 130 | – | – | – | –
COc1cc(C(=O)/C=C/c2ccncc2)ccc1OCc1cn([C@H]2c3cc4c(cc3[C@@H](c3cc(OC)c(OC)c(OC)c3)[C@H]3C(=O)OC[C@@H]32)OCO4)nn1 | – | – | – | – | – | – | – | 130 | 130 | 130 | 130
COc1cc([C@@H]2c3cc4c(cc3[C@@H](OC(=O)CCCCCNC(=O)CCCC[C@@H]3SC[C@@H]5NC(=O)N[C@@H]53)[C@H]3COC(=O)[C@H]23)OCO4)cc(OC)c1O | – | > 130 | – | > 130 | > 130 | > 130 | > 130 | – | – | – | –
COc1cc(C(=O)/C=C/c2ccc(N(C)C)cc2)ccc1OCc1cn([C@H]2c3cc4c(cc3[C@@H](c3cc(OC)c(OC)c(OC)c3)[C@H]3C(=O)OC[C@@H]32)OCO4)nn1 | – | – | – | – | – | – | – | 130 | 130 | 130 | 130
COc1cc(C(=O)/C=C/c2ccc(C(F)(F)F)cc2)ccc1OCc1cn([C@H]2c3cc4c(cc3[C@@H](c3cc(OC)c(OC)c(OC)c3)[C@H]3C(=O)OC[C@@H]32)OCO4)nn1 | – | – | – | – | – | – | – | 130 | 130 | 130 | 130
COc1cc([C@@H]2c3cc4c(cc3[C@@H](n3cc(COC(=O)CCCC[C@@H]5SC[C@@H]6NC(=O)N[C@@H]65)nn3)[C@H]3COC(=O)[C@H]23)OCO4)cc(OC)c1O | – | > 130 | – | > 130 | > 130 | > 130 | > 130 | – | – | – | –
COc1cc([C@@H]2c3cc4c(cc3[C@@H](n3cc(COC(=O)CCCCCNC(=O)CCCC[C@@H]5SC[C@@H]6NC(=O)N[C@@H]65)nn3)[C@H]3COC(=O)[C@H]23)OCO4)cc(OC)c1O | – | > 130 | – | > 130 | > 130 | > 130 | > 130 | – | – | – | –
COc1ccccc1/C=C/C(=O)c1ccc(OCc2cn([C@H]3c4cc5c(cc4[C@@H](c4cc(OC)c(OC)c(OC)c4)[C@H]4C(=O)OC[C@@H]43)OCO5)nn2)c(OC)c1 | – | – | – | – | – | – | – | 130 | 130 | 130 | 130
COc1cc([C@@H]2c3cc4c(cc3[C@@H](OC(=O)CCCCCNC(=O)CCCC[C@@H]3SC[C@@H]5NC(=O)N[C@@H]53)[C@H]3COC(=O)[C@H]23)OCO4)cc(OC)c1OC | – | > 130 | – | > 130 | > 130 | > 130 | > 130 | – | – | – | –
COc1cc([C@@H]2c3cc4c(cc3[C@@H](NC(=O)CCCC[C@@H]3SC[C@@H]5NC(=O)N[C@@H]53)[C@H]3COC(=O)[C@H]23)OCO4)cc(OC)c1OC | – | > 130 | – | > 130 | > 130 | > 130 | > 130 | – | – | – | –
COc1cc(C(C)=O)ccc1OCc1cn([C@H]2c3cc4c(cc3[C@@H](c3cc(OC)c(OC)c(OC)c3)[C@H]3C(=O)OC[C@@H]32)OCO4)nn1 | – | – | – | – | – | – | – | 130 | 130 | 130 | 130
COc1cc([C@@H]2c3cc4c(cc3[C@H](OC(=O)CCCC[C@@H]3SC[C@@H]5NC(=O)N[C@@H]53)[C@H]3COC(=O)[C@H]23)OCO4)cc(OC)c1OC | – | > 130 | – | > 130 | > 130 | > 130 | > 130 | – | – | – | –
CCCC(=O)O[C@@H]1[C@@H](OC(=O)CCC)[C@@H](O[C@@H]2c3cc4c(cc3[C@@H](c3cc(OC)c(O)c(OC)c3)[C@H]3C(=O)OC[C@@H]32)OCO4)OC[C@H]1OC(=O)CCC | – | > 2900 | – | > 2900 | > 2900 | > 2900 | > 2900 | – | – | – | –
COc1ccc(/C=C/C(=O)c2ccc(OCc3cn([C@H]4c5cc6c(cc5[C@@H](c5cc(OC)c(OC)c(OC)c5)[C@H]5C(=O)OC[C@@H]54)OCO6)nn3)c(OC)c2)cc1OC | – | – | – | – | – | – | – | 130 | 130 | 130 | 130
COc1cc(C(=O)/C=C/c2ccsc2)ccc1OCc1cn([C@H]2c3cc4c(cc3[C@@H](c3cc(OC)c(OC)c(OC)c3)[C@H]3C(=O)OC[C@@H]32)OCO4)nn1 | – | – | – | – | – | – | – | 130 | 130 | 130 | 130

SMILES | IC50 [1] [nM] | IC50 [2] [nM] | IC50 [3] [nM] | IC50 [4] [nM] | IC50 [5] [nM] | IC50 [6] [nM] | IC50 [7] [nM] | IC50 [8] [nM] | IC50 [9] [nM] | IC50 [10] [nM] | IC50 [11] [nM]
COc1cc(C(=O)/C=C/c2cc(OC)c(OC)c(OC)c2)ccc1OCc1cn([C@H]2c3cc4c(cc3[C@@H](c3cc(OC)c(OC)c(OC)c3)[C@H]3C(=O)OC[C@@H]32)OCO4)nn1 | – | – | – | – | – | – | – | 130 | 130 | 130 | 130
COc1ccc(OC(C)(C)c2cn([C@H]3c4cc5c(cc4[C@@H](c4cc(OC)c(OC)c(OC)c4)[C@H]4C(=O)OC[C@@H]43)OCO5)nn2)cc1 | – | – | – | – | – | – | – | 130 | 130 | 130 | 130
COc1cc([C@@H]2c3cc4c(cc3[C@@H](NC(=O)CCCCCNC(=O)CCCC[C@@H]3SC[C@@H]5NC(=O)N[C@@H]53)[C@H]3COC(=O)[C@H]23)OCO4)cc(OC)c1O | – | > 130 | – | > 130 | > 130 | > 130 | > 130 | – | – | – | –
COc1cc([C@@H]2c3cc4c(cc3[C@H](n3cc(CNC(=O)c5ccc(Cl)cc5)nn3)[C@H]3COC(=O)[C@H]23)OCO4)cc(OC)c1OC | – | – | – | – | – | – | – | 130 | 130 | 130 | 130
COc1cc([C@@H]2c3cc4c(cc3[C@@H](OC(=O)CCCC[C@@H]3SC[C@@H]5NC(=O)N[C@@H]53)[C@H]3COC(=O)[C@H]23)OCO4)cc(OC)c1OC | – | > 130 | – | > 130 | > 130 | > 130 | > 130 | – | – | – | –
COc1cc([C@@H]2c3cc4c(cc3[C@H](n3cc(CNC(=O)c5ccccc5Cl)nn3)[C@H]3COC(=O)[C@H]23)OCO4)cc(OC)c1OC | – | – | – | – | – | – | – | 130 | 130 | 130 | 130
COc1cc([C@@H]2c3cc4c(cc3[C@H](n3cc(C(C)(C)Oc5ccc([N+](=O)[O-])cc5)nn3)[C@H]3COC(=O)[C@H]23)OCO4)cc(OC)c1OC | – | – | – | – | – | – | – | 130 | 130 | 130 | 130
COc1cc(OC)c(OC)cc1/C=C/C(=O)c1ccc(OCc2cn([C@H]3c4cc5c(cc4[C@@H](c4cc(OC)c(OC)c(OC)c4)[C@H]4C(=O)OC[C@@H]43)OCO5)nn2)c(OC)c1 | – | – | – | – | – | – | – | 130 | 130 | 130 | 130
COc1cc(C(=O)/C=C/c2ccc(F)cc2)ccc1OCc1cn([C@H]2c3cc4c(cc3[C@@H](c3cc(OC)c(OC)c(OC)c3)[C@H]3C(=O)OC[C@@H]32)OCO4)nn1 | – | – | – | – | – | – | – | 130 | 130 | 130 | 130
COc1cc([C@@H]2c3cc4c(cc3[C@@H](n3cc(COC(=O)CCCCCNC(=O)CCCC[C@@H]5SC[C@@H]6NC(=O)N[C@@H]65)nn3)[C@H]3COC(=O)[C@H]23)OCO4)cc(OC)c1OC | – | > 130 | – | > 130 | > 130 | > 130 | > 130 | – | – | – | –
CCC[C@@H]1O[C@@H](O[C@H]2c3cc4c(cc3[C@@H](c3cc(OC)c(OC)c(OC)c3)[C@H]3C(=O)OC[C@@H]32)OCO4)CC[C@H]1O | 41.6 | 41.6 | 41.6 | – | – | 41.6 | – | – | – | – | –
COc1cc(C(=O)/C=C/c2cccs2)ccc1OCc1cn([C@H]2c3cc4c(cc3[C@@H](c3cc(OC)c(OC)c(OC)c3)[C@H]3C(=O)OC[C@@H]32)OCO4)nn1 | – | – | – | – | – | – | – | 130 | 130 | 130 | 130
COc1cc([C@@H]2c3cc4c(cc3[C@@H](O[C@H]3O[C@H](COC(C)=O)[C@@H](OC(C)=O)[C@H](OC(C)=O)[C@H]3OC(C)=O)[C@H]3COC(=O)[C@H]23)OCO4)cc(OC)c1O | – | > 140 | – | > 140 | > 140 | > 140 | > 140 | – | – | – | –
COc1cc([C@@H]2c3cc4c(cc3[C@@H](n3cc(COC(=O)CCCC[C@@H]5SC[C@@H]6NC(=O)N[C@@H]65)nn3)[C@H]3COC(=O)[C@H]23)OCO4)cc(OC)c1OC | – | > 130 | – | > 130 | > 130 | > 130 | > 130 | – | – | – | –
COc1cc([C@@H]2c3cc4c(cc3[C@@H](NC(=O)CCCCCNC(=O)CCCC[C@@H]3SC[C@@H]5NC(=O)N[C@@H]53)[C@H]3COC(=O)[C@H]23)OCO4)cc(OC)c1OC | – | > 130 | – | > 130 | > 130 | > 130 | > 130 | – | – | – | –
COc1cc([C@@H]2c3cc4c(cc3[C@@H](NC(=O)CCCC[C@@H]3SC[C@@H]5NC(=O)N[C@@H]53)[C@H]3COC(=O)[C@H]23)OCO4)cc(OC)c1O | – | > 130 | – | > 130 | > 130 | > 130 | > 130 | – | – | – | –
